In article PMC11212140, “Molecular Bidents with Two Electrophilic Warheads as a New Pharmacological Modality” (ACS Central Science, 2024):

What was measured:
Assay in all cases: KiNativ profiling in H3255 cells
Format in all cases: cell-based, human
[1] = system: T1, CCRK; conditions: 2.5 µM; Lys2; DLKPANLLISASGQLK
T1 construct: purchased ActivX Biosciences (KiNativ)
Method: (§1) treatment. Cell viability was determined by using CellTiter-Glo (Promega #G7571) according to the manufacturer’s instructions, measuring luminescence using an Envision plate-reader (PerkinElmer Inc.). Dose-response curves were generated using non-linear regression curve fit in GraphPad Prism 9.2.0(GraphPad Software).
(§2) Cellular target engagement assays
(§3) After 6 hours treatment, cells were pelleted, washed with PBS once and lysed with IP lysis buffer (25mMTris-HCl pH 7.4, 150mM NaCl, 1 mM EDTA, 1% NP-40 and 5% glycerol) (Thermo Fisher Scientific, Cat#87788) containing protease/phosphatase inhibitor cocktail (Roche). The protein concentrations were measured by BCA analysis (Pierce). Cell lysates were incubated with 1 μM of biotin conjugated probe (bio-Osimertinib or bio-ZNL-0013) at 4 ℃ overnight, and incubated for 3 more hours at room temperature. Lysates with probe were then incubated with streptavidin beads (Thermo Fisher, #20349) for 2 hours at 4 ℃. The protein-probe complexes on the beads were then subjected to immunoblotting.
(§4) H3255 cells were plated with 6.5x10^6 per condition in fresh media in 15 cm plates and treated the 80% confluency for 2 hours with DMSO or 2.5 μM of ZNL-0056. To harvest cells, plates were washed 3 times with cold PBS, then collected by scraping into 4 mL of cold PBS containing protease and phosphatase inhibitors. Cells were pelleted by centrifugation at 1350 g at 4 ℃ for 5 minutes and immediately frozen in liquid nitrogen. The frozen samples were sent to ActivX Biosciences (La Jolla, CA) for the remainder of the KiNativ profiling experiment4.
(§5) Protein expression and purification
(§6) Human EGFR kinase domain (residues 696-1022) with T790M and V948R mutations was cloned with an N-terminal, protease cleavable His -GST tag. Recombinant protein was expressed in SF9 insect cells using baculovirus generated from the pFastBac system (Thermo Fisher) .
(§7) Briefly, cells at a density of ~2x10^6 cells/mL were infected with 1% (v/v) virus stock and grown for ~72 hours before harvesting and freezing the cell pellet . Infected cells were lysed in buffer A (50 mM Tris pH 8.0, 500 mM NaCl, 5% glycerol, 0.5 mM Tris(2-carboxyethyl)phosphine [TCEP]), ultracentrifuged at >200,000 rcf for 1 h, and the supernatant flo wed through Ni-NTA resin by gravity. The resin was washed with buffer A supplemented with 40 mM imidazole by […]

[2] = system: CK1g1, CK1g2, CK1g3; conditions: 2.5 µM; ATP Loop; KIGCGNFGELR
Method: as §1, §2, §3, §4, §5, §6, §7

[3] = system: T2, CaMK1a; conditions: 2.5 µM; Lys1; LVAIKCIAK
T2 construct: purchased ActivX Biosciences (KiNativ)
Method: as §1, §2, §3, §4, §5, §6, §7

[4] = system: T3, CaMK2d; conditions: 2.5 µM; Lys1; IPTGQEYAAKIINTKK
T3 construct: purchased ActivX Biosciences (KiNativ)
Method: as §1, §2, §3, §4, §5, §6, §7

[5] = system: T4, CaMKK2; conditions: 2.5 µM
T4 construct: purchased ActivX Biosciences (KiNativ)
Method: as §1, §2, §3, §4, §5, §6, §7

[6] = system: T5, DGKA; conditions: 2.5 µM; ATP; IDPVPNTHPLLVFVNPKSGGK
T5 construct: purchased ActivX Biosciences (KiNativ)
Method: as §1, §2, §3, §4, §5, §6, §7

[7] = system: DRAK1, DRAK2; conditions: 2.5 µM; ATP Loop; GKFAVVR
Method: as §1, §2, §3, §4, §5, §6, §7

[8] = system: T6, Erk5; conditions: 2.5 µM; Lys2; DLKPSNLLVNENCELK
T6 construct: purchased ActivX Biosciences (KiNativ)
Method: as §1, §2, §3, §4, §5, §6, §7

[9] = system: T7, IKKa; conditions: 2.5 µM; Lys2; DLKPENIVLQDVGGK
T7 construct: purchased ActivX Biosciences (KiNativ)
Method: as §1, §2, §3, §4, §5, §6, §7

[10] = system: T8, IRE1; conditions: 2.5 µM; Lys2; DLKPHNILISMPNAHGK
T8 construct: purchased ActivX Biosciences (KiNativ)
Method: as §1, §2, §3, §4, §5, §6, §7

[11] = system: T9, ITPK1; conditions: 2.5 µM; ATP; NFSAGTSDRESIFFNSHNVSKPESSSVLTELDKIEGVFERPSDEVIR
T9 construct: purchased ActivX Biosciences (KiNativ)
Method: as §1, §2, §3, §4, §5, §6, §7

[12] = system: JNK1, JNK2, JNK3; conditions: 2.5 µM; Lys2; DLKPSNIVVK
Method: as §1, §2, §3, §4, §5, §6, §7

[13] = system: T10, MAP2K7; conditions: 2.5 µM; Lys2; DVKPSNILLDER
T10 construct: purchased ActivX Biosciences (KiNativ)
Method: as §1, §2, §3, §4, §5, §6, §7

[14] = system: T11, MAP4K3; conditions: 2.5 µM
T11 construct: purchased ActivX Biosciences (KiNativ)
Method: as §1, §2, §3, §4, §5, §6, §7

[15] = system: T12, MARK2; conditions: 2.5 µM; Lys1; EVAVKIIDKTQLNSSSLQK
T12 construct: purchased ActivX Biosciences (KiNativ)
Method: as §1, §2, §3, §4, §5, §6, §7

[16] = system: T13, MLK1; conditions: 2.5 µM; Lys2; DLKSSNILILQK
T13 construct: purchased ActivX Biosciences (KiNativ)
Method: as §1, §2, §3, §4, §5, §6, §7

[17] = system: T14, NEK9; conditions: 2.5 µM
T14 construct: purchased ActivX Biosciences (KiNativ)
Method: as §1, §2, §3, §4, §5, §6, §7

[18] = system: T15, PIK3CB; conditions: 2.5 µM; ATP; VFGEDSVGVIFKNGDDLRQDMLTLQMLR
T15 construct: purchased ActivX Biosciences (KiNativ)
Method: as §1, §2, §3, §4, §5, §6, §7

[19] = system: T16, PIP4K2C; conditions: 2.5 µM, ATP
T16 construct: purchased ActivX Biosciences (KiNativ)
Method: as §1, §2, §3, §4, §5, §6, §7

[20] = system: T17, PKN1; conditions: 2.5 µM; Lys1; VLLSEFRPSGELFAIKALK
T17 construct: purchased ActivX Biosciences (KiNativ)
Method: as §1, §2, §3, §4, §5, §6, §7

[21] = system: T18, PKR; conditions: 2.5 µM
T18 construct: purchased ActivX Biosciences (KiNativ)
Method: as §1, §2, §3, §4, §5, §6, §7

[22] = system: T19, STLK6; conditions: 2.5 µM; Lys1; HTPTGTLVTIKITNLENCNEER
T19 construct: purchased ActivX Biosciences (KiNativ)
Method: as §1, §2, §3, §4, §5, §6, §7

[23] = system: Wnk1, Wnk2, Wnk4; conditions: 2.5 µM; Activation Loop; IGDLGLATLKR
Method: as §1, §2, §3, §4, §5, §6, §7

[24] = system: T20, YANK3; conditions: 2.5 µM; Lys2; DVKPDNILLDER
T20 construct: purchased ActivX Biosciences (KiNativ)
Method: as §1, §2, §3, §4, §5, §6, §7

[25] = Activation Loop, IGDFGLVTSLKNDGKR

| Compound | Inhibition [1] [%] | Inhibition [2] [%] | Inhibition [3] [%] | Inhibition [4] [%] | Inhibition ([5]; Lys1, LAYNENDNTYYAMKVLSK) [%] | Inhibition ([5]; Lys2, DIKPSNLLVGEDGHIK) [%] | Inhibition [6] [%] | Inhibition [7] [%] | Inhibition [8] [%] | Inhibition [9] [%] | Inhibition [10] [%] | Inhibition [11] [%] | Inhibition [12] [%] | Inhibition [13] [%] | Inhibition ([14]; Lys1, NVNTGELAAIKVIK) [%] | Inhibition ([14]; Lys2, DIKGANILLTDNGHVK) [%] | Inhibition [15] [%] | Inhibition [16] [%] | Inhibition ([17]; Activation Loop, LGDYGLAKK) [%] | Inhibition ([17]; Lys1, RTEDDSLVVWKEVDLTR) [%] | other results |
| --- | --- | --- | --- | --- | --- | --- | --- | --- | --- | --- | --- | --- | --- | --- | --- | --- | --- | --- | --- | --- | --- |
| C=CC(=O)Nc1cc(C(=O)Nc2nc3cccc(C)c3n2[C@@H]2CCCCN(C(=O)C=C)C2)cs1 [ZNL-0056] | 2.1 | 13.6 | 5.1 | -4.1 | 74.6 | 73.1 | 14.0 | 46.6 | -18.2 | 5.3 | -29.1 | -0.632 | -5.1 | 90.7 | 9.4 | 21.1 | 25.2 | -4.3 | -6.5 | 3.2 | Inhibition ([17]; Lys2, DIKTLNIFLTK): 4.4%; Inhibition [18]: -22.3%; Inhibition ([19]; TLVIKEVSSEDIADMHSNLSNYHQYIVK): 60.9%; Inhibition ([19]; VKELPTLKDMDFLNK): 53.5%; Inhibition [20]: 8.5%; Inhibition [21, 25]: 11.7%; Inhibition ([21]; Lys2, DLKPSNIFLVDTK): 0.451%; Inhibition [22]: 16.7%; Inhibition [23]: 1.3%; Inhibition [24]: -11.7% |
| C=CC(=O)Nc1cc(Nc2nccc(-c3cn(C)c4ccccc34)n2)c(OC)cc1N(C)CCN(C)C [Osimertinib, osimertinib, reference compound] | 16.1 | -14.3 | 7.0 | -3.1 | 73.3 | 60.8 | -5.7 | 13.6 | -4.1 | -19.3 | 13.6 | 22.9 | 13.4 | -1.4 | -4.2 | 3.2 | 7.8 | 34.9 | -11.0 | -18.7 | Inhibition ([17]; Lys2, DIKTLNIFLTK): -12.2%; Inhibition [18]: -1.4%; Inhibition ([19]; TLVIKEVSSEDIADMHSNLSNYHQYIVK): 59.0%; Inhibition ([19]; VKELPTLKDMDFLNK): 55.5%; Inhibition [20]: -12.2%; Inhibition [21, 25]: -12.9%; Inhibition ([21]; Lys2, DLKPSNIFLVDTK): 6.2%; Inhibition [22]: 12.6%; Inhibition [23]: -32.3%; Inhibition [24]: 1.4% |
